Entries after “also recorded” stand apart in the source; their conditions may differ.
Columns and labels:
diet-induced obese mice = assay: Efficacy in diet-induced obese mice; assay type: in vivo
Description: Alkaline Phosphatase (ALP) Quantitation. Increased levels of ALP in blood are considered indicative of liver function abnormalities. Thus, ALP was assayed in accordance with known methods (Kiselyuk, et al. (2012) Chem. Biol. 19(7):806-818). Briefly, prior to sacrifice, blood was drawn and analyzed using a VetScan blood analyzer, measuring alkaline phosphatase (ALP, IU/L), alanine aminotransferase (ALT, IU/L), gamma glutamyl transferase (GGT, IU/L), bile acids (BA, μmol/L), total bilirubin (TBIL, mg/dL), albumin (ALB, g/dL), blood urea nitrogen (BUN, mg/dL), and cholesterol (CHOL, mg/dL).
Triglyceride (TG) Quantitation. TG quantity was assayed using a Triglyceride Colorimetric Assay Kit (Cayman Chemicals; Ann Arbor, MI) according to the manufacturer's instructions.
Lipid Droplet Size Analysis. All slides were scanned at a magnification of 20× using the Aperio Scanscope FL system (Aperio Technologies Inc.; Vista, CA). The appropriate dyes were assigned and illumination levels were calibrated using a preset procedure; the parameters were saved and applied to all slides. The acquired digital images represented whole tissue sections. Sections were evaluated for image quality. All acquired images were subsequently placed in dedicated project folders, and stored on a designated local server. Selected areas of the slides were selected using Aperio Imagescope (version 12 Aperio Technologies Inc.). For analysis, slides were viewed, whole tissue areas were selected and analyzed using the web-based Image Scope viewer. Slides were quantified using the ‘Color Deconvolution v9’ algorithm for oil redo staining (version 11 Aperio Technologies Inc.). The algorithm was optimized using a preset procedure to maximize the strong red color positive oil droplets signal to noise ratio and the subsequent macro was saved and applied to all slides.
HNF4α Immunostaining in Organ Samples. Samples were harvested from mice, fixed in 4% paraformaldehyde and embedded in paraffin or O.C.T. freezing media (Sakura Finetek; Torrance, CA). Slides of 5 μm thickness were washed four times with PBS and treated with 0.3% Triton™ in PBS for 10 minutes. Antigen retrieval was carried out with CitriSolv™ (Fisher Scientific; Waltham, MA) for 10 minutes in sub-boiling temperature. After washing with PBS for 10 minutes, slides were incubated in blocking solution with 5% normal donkey serum (Jackson Immuno Research; West Grove, PA) for 60 minutes at room temperature. Cells were fixed in 4% paraformaldehyde for 15 minutes on 4° C. and washed with PBS, treated with 0.3% Triton™ in PBS for 10 minutes and blocked as previously described for slide samples.
Primary Antibodies. HNF4α antibodies were used (#sc-6556, Santa Cruz Biotechnology; Santa Cruz, CA and #3113, Cell Signaling Technology; Danvers, MA). For fluorescent imaging, samples were incubated with ALEXA FLOUR® 488 green-fluorescent dye or Rhodamine labeled anti-mouse, rabbit or goat and nuclei were counterstained with DAPI (4′,6-diamidino-2-phenylindole). Controls using secondary antibodies alone were used to ensure specificity of immunostaining. Fluorescently labeled sections were analyzed with a conventional inverted microscope (Olympus, PlanFl 40x/0.60) or with a confocal microscope equipped with a krypton/argon laser.
The experiments were performed to establish feedingand treatment regimens, dosing and administration regimens, as well as to provide evidence of beneficial effects of N-trans-caffeoyltyramine on glucose and lipid homeostasis, hepatic steatosis, -cell function and hepatocyte function. Twelve mice (10 weeks old) were fed a high-fat diet for four weeks to induce obesity. After four weeks, and while on the high-fat diet, six mice were administered 5% DMSO or 120 mg/kg N-trans-caffeoyltyramine twice a day intraperitoneally for 14 days. One hour after the last i.p. injection of DMSO or N-trans-caffeoyltyramine, the animals were sacrificed and blood and organ (liver, kidney, gut and pancreas) samples were collected. […]

insulin mRNA = assay: Insulin mRNA levels by quantitative PCR; assay type: cell-based; settings: FIG. 2
Description: Expression of Insulin and HNF4α. RNA was purified using a RNEASY® chromatographic separation and isolation kits (Qiagen), and converted to cDNA using the gScript™ cDNA SuperMix (Quanta Biosciences). Q-PCR was conducted with cDNA corresponding to 2 μg of RNA using an Opticon Real-Time System (MJ Research) and QPCR SuperMix (BioPioneer). See All mRNA values were normalized to 18S rRNA values and are expressed as fold changes over vehicle-treated control.

For `O=C(/C=C/c1ccc(O)c(O)c1)NCCc1ccc(O)cc1` [N-trans-caffeoyltyramine], the “lipid accumulation in the liver” value (diet-induced obese mice; 120 mg/kg twice a day i.p. for 14 days vs DMSO) was “decreased lipid accumulation”, the “lipid droplet sizes in the liver” value (diet-induced obese mice; 120 mg/kg twice a day i.p. for 14 days vs DMSO, FIG. 8) was “reduced” and the levels of triglycerides (diet-induced obese mice; 120 mg/kg twice a day i.p. for 14 days vs DMSO, FIG. 10) was “significantly reduced”. For the same molecule, the “HNF4α expression in the pancreas” value (diet-induced obese mice; 120 mg/kg twice a day i.p. for 14 days vs DMSO, FIG. 11) was “increased”, the “HNF4α expression in intestines” value (diet-induced obese mice; 120 mg/kg twice a day i.p. for 14 days vs DMSO, FIG. 12) was “increased” and the “HNF4α expression in the liver (nuclear expression)” value (diet-induced obese mice; 120 mg/kg twice a day i.p. for 14 days vs DMSO, P=0.0042, FIG. 7) was “significantly increased; also recorded: increases nuclear expression of HNF4α”. The “weight loss, sickness, or abnormal behaviors compared to the control group” value (diet-induced obese mice; 120 mg/kg twice a day i.p. for 14 days, high-fat diet mice) was “None of the treated mice exhibited weight loss, sickness, or abnormal behaviors”, the “levels of alkaline phosphatase” value (diet-induced obese mice; blood, 120 mg/kg twice a day i.p. for 14 days vs DMSO, FIG. 9) was “significantly reduced” and the insulin gene expression (insulin mRNA) was “upregulated”.
